# Values joined by “and” are separate entries in the source; they are usually repeats but may differ in a detail not shown here. Identical values can stand only once. Inconclusive results are not listed.
# Tested on: CD8F1 mice, subcutaneous mammary adenocarcinoma, T/C%
# Assay: NCI In Vivo Anticancer Drug Screen. Data for tumor model Mammary Adenocarcinoma CD8F1 (subcutaneous) in CD8F1
# Conditions: higher = larger tumour
# How it was run: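 Mice carrying transplanted tumors received test compound, and survival or tumor size was recorded. Each value is the treated-group measurement divided by the corresponding measurement in vehicle-dosed controls.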
# [1] = endpoint: median tumor weight (est.), dose: 25.0 mg/kg/injection, schedule: Q07DX005 (ip), vehicle: saline with Tween-80
# [2] = endpoint: median tumor weight (est.), dose: 6.25 mg/kg/injection, schedule: Q07DX005 (ip), vehicle: saline
# [3] = endpoint: median tumor weight (est.), dose: 12.5 mg/kg/injection, schedule: Q07DX005 (ip), vehicle: saline
# [4] = endpoint: median tumor weight (est.), dose: 25.0 mg/kg/injection, schedule: Q07DX005 (ip), vehicle: saline
# [5] = endpoint: median tumor weight change, dose: 250.0 mg/kg/injection, schedule: Q01DX001 (ip), vehicle: saline with Tween-80
smiles,measurement,setting,value
CC(=O)c1c(O)c(C)c(O)c2c1OC1=CC(=O)C(C(C)=O)C(=O)C12C (centres undefined),T/C,"endpoint: median tumor weight (est.), dose: 12.5 mg/kg/injection, schedule: Q07DX004 (ip), vehicle: gum acacia",44 % of control
same,T/C,"endpoint: median tumor weight (est.), dose: 12.5 mg/kg/injection, schedule: Q07DX005 (ip), vehicle: gum acacia",95 % of control
same,T/C,"endpoint: median tumor weight (est.), dose: 25.0 mg/kg/injection, schedule: Q07DX004 (ip), vehicle: gum acacia",78 % of control
same,T/C,"endpoint: median tumor weight (est.), dose: 25.0 mg/kg/injection, schedule: Q07DX005 (ip), vehicle: gum acacia",120 % of control
same,T/C,"endpoint: median tumor weight (est.), dose: 50.0 mg/kg/injection, schedule: Q04DX005 (ip), vehicle: gum acacia",79 % of control and 97 % of control
same,T/C,"endpoint: median tumor weight (est.), dose: 50.0 mg/kg/injection, schedule: Q07DX004 (ip), vehicle: gum acacia",85 % of control
same,T/C,"endpoint: median tumor weight (est.), dose: 50.0 mg/kg/injection, schedule: Q07DX005 (ip), vehicle: gum acacia",85 % of control
same,T/C,"endpoint: median tumor weight (est.), dose: 100.0 mg/kg/injection, schedule: Q07DX004 (ip), vehicle: gum acacia",114 % of control
same,T/C,"endpoint: median tumor weight (est.), dose: 100.0 mg/kg/injection, schedule: Q07DX005 (ip), vehicle: gum acacia",74 % of control
same,T/C,"endpoint: median tumor weight (est.), dose: 200.0 mg/kg/injection, schedule: Q07DX005 (ip), vehicle: gum acacia",102 % of control
same,T/C,"endpoint: median tumor weight (est.), dose: 400.0 mg/kg/injection, schedule: Q04DX005 (ip), vehicle: gum acacia",97 % of control
same,T/C,"endpoint: median tumor weight (est.), dose: 400.0 mg/kg/injection, schedule: Q07DX004 (ip), vehicle: gum acacia",42 % of control
same,T/C,"endpoint: median tumor weight (est.), dose: 400.0 mg/kg/injection, schedule: Q07DX005 (ip), vehicle: gum acacia",96 % of control
COC1C(O)CC(OC2C(C)OC(Oc3cc(O)c4c(O)c5c(cc4c3)C[C@@H]([C@H](OC)C(=O)[C@@H](O)[C@@H](C)O)[C@H](OC3CC(OC4CC(OC6CC(C)(O)C(O)C(C)O6)C(O)C(C)O4)C(O)C(C)O3)C5=O)CC2OC(C)=O)OC1C (some centres undefined),T/C,"endpoint: median tumor weight (est.), dose: 18.75 mg/kg/injection, schedule: Q07DX005 (ip), vehicle: suspension in saline",207 % of control
same,T/C,"endpoint: median tumor weight (est.), dose: 75.0 mg/kg/injection, schedule: Q07DX005 (ip), vehicle: suspension in saline",66 % of control
same,T/C,"endpoint: median tumor weight (est.), dose: 150.0 mg/kg/injection, schedule: Q07DX005 (ip), vehicle: suspension in saline",111 % of control
same,T/C,"endpoint: median tumor weight (est.), dose: 300.0 mg/kg/injection, schedule: Q07DX005 (ip), vehicle: suspension in saline",123 % of control
O=S(=O)(O)O,T/C,"endpoint: median tumor weight change, dose: 62.5 mg/kg/injection, schedule: Q01DX001 (ip), vehicle: Klucel (hydroxypropylcellulose) (HPC)",101 % of control
CC1OC(OC2CC(O)(C(=O)CO)Cc3c(O)c4c(c(O)c32)C(=O)c2ccccc2C4=O)CC(N)C1O (centres undefined),T/C,"endpoint: mean tumor weight, dose: 0.12 mg/kg/injection, schedule: Q07DX006 (ip), vehicle: saline",40 % of control
same,T/C,"endpoint: mean tumor weight, dose: 0.5 mg/kg/injection, schedule: Q07DX006 (ip), vehicle: saline",1 % of control
same,T/C,"endpoint: median tumor weight change, dose: 0.31 mg/kg/injection, schedule: Q01DX001 (ip), vehicle: water",67 % of control
same,T/C,"endpoint: median tumor weight change, dose: 0.62 mg/kg/injection, schedule: Q01DX001 (ip), vehicle: water",37 % of control
same,T/C,"endpoint: median tumor weight change, dose: 1.25 mg/kg/injection, schedule: Q01DX001 (ip), vehicle: water",26 % of control and 28 % of control
Cc1cc(NCCCCCCCNc2cc(C)nc3cc(N)ccc23)c2ccc(N)cc2n1,T/C,"endpoint: median tumor weight (est.), dose: 3.12 mg/kg/injection, schedule: Q07DX005 (ip), vehicle: saline with Tween-80",89 % of control
same,T/C,"endpoint: median tumor weight (est.), dose: 6.25 mg/kg/injection, schedule: Q07DX005 (ip), vehicle: saline with Tween-80",111 % of control
same,T/C,"endpoint: median tumor weight (est.), dose: 12.5 mg/kg/injection, schedule: Q07DX005 (ip), vehicle: saline with Tween-80",79 % of control
same,T/C,[1],26 % of control
same,T/C,"endpoint: median tumor weight change, dose: 31.25 mg/kg/injection, schedule: Q01DX001 (ip), vehicle: saline with Tween-80",28 % of control and 45 % of control
same,T/C,"endpoint: median tumor weight change, dose: 62.5 mg/kg/injection, schedule: Q01DX001 (ip), vehicle: saline with Tween-80",27 % of control
CC[C@](O)(C(=O)O)c1cc2n(c(=O)c1CO)Cc1cc3ccccc3nc1-2,T/C,"endpoint: mean tumor weight (est.), dose: 20.0 mg/kg/injection, schedule: Q07DX004 (ip), vehicle: saline",70 % of control
same,T/C,"endpoint: mean tumor weight (est.), dose: 40.0 mg/kg/injection, schedule: Q07DX004 (ip), vehicle: saline",61 % of control
same,T/C,"endpoint: mean tumor weight (est.), dose: 60.0 mg/kg/injection, schedule: Q07DX004 (ip), vehicle: saline",48 % of control
same,T/C,"endpoint: mean tumor weight, dose: 2.5 mg/kg/injection, schedule: Q01DX009 (ip), vehicle: saline",55 % of control
same,T/C,"endpoint: mean tumor weight, dose: 10.0 mg/kg/injection, schedule: Q07DX006 (ip), vehicle: saline",13 % of control
same,T/C,"endpoint: mean tumor weight, dose: 20.0 mg/kg/injection, schedule: Q07DX006 (ip), vehicle: saline",36 % of control and 42 % of control
same,T/C,"endpoint: mean tumor weight, dose: 20.0 mg/kg/injection, schedule: Q07DX007 (ip), vehicle: saline",102 % of control
same,T/C,"endpoint: mean tumor weight, dose: 40.0 mg/kg/injection, schedule: Q07DX006 (ip), vehicle: saline",23 % of control
same,T/C,"endpoint: mean tumor weight, dose: 40.0 mg/kg/injection, schedule: Q07DX007 (ip), vehicle: saline",71 % of control
same,T/C,"endpoint: mean tumor weight, dose: 60.0 mg/kg/injection, schedule: Q07DX006 (ip), vehicle: saline",2 % of control
same,T/C,"endpoint: mean tumor weight, dose: 80.0 mg/kg/injection, schedule: Q07DX007 (ip), vehicle: saline",49 % of control
same,T/C,[2],58 % of control
same,T/C,[3],59 % of control
same,T/C,[4],41 % of control
N#CC(OC1OC(COC2OC(CO)C(O)C(O)C2O)C(O)C(O)C1O)c1ccccc1 (centres undefined),T/C,"endpoint: median tumor weight (est.), dose: 50.0 mg/kg/injection, schedule: Q07DX005 (ip), vehicle: water",71 % of control
same,T/C,"endpoint: median tumor weight (est.), dose: 100.0 mg/kg/injection, schedule: Q07DX005 (ip), vehicle: water",88 % of control
same,T/C,"endpoint: median tumor weight (est.), dose: 200.0 mg/kg/injection, schedule: Q07DX005 (ip), vehicle: water",112 % of control
same,T/C,"endpoint: median tumor weight (est.), dose: 400.0 mg/kg/injection, schedule: Q07DX005 (ip), vehicle: water",114 % of control
same,T/C,"endpoint: median tumor weight (est.), dose: 800.0 mg/kg/injection, schedule: Q07DX005 (ip), vehicle: water",82 % of control
O=C(NO)c1ccc(O)c(O)c1,T/C,"endpoint: median tumor weight change, dose: 300.0 mg/kg/injection, schedule: Q01DX001 (ip), vehicle: water",89 % of control
same,T/C,"endpoint: median tumor weight change, dose: 600.0 mg/kg/injection, schedule: Q01DX001 (ip), vehicle: water",48 % of control
COC1=C(NC(C)=O)C(=O)c2nc(-c3nc(C(=O)O)c(C)c(-c4ccc(OC)c(OC)c4O)c3N)ccc2C1=O,T/C,"endpoint: median tumor weight change, dose: 12.5 mg/kg/injection, schedule: Q01DX001 (ip), vehicle: Klucel (hydroxypropylcellulose) (HPC)",171 % of control
CC[N](CC)[Ge]([CH2]C)[CH2]C.CC[N](CC)[Ge]([CH2]C)[CH2]C,T/C,[2],116 % of control
same,T/C,[3],74 % of control
same,T/C,[4],124 % of control
same,T/C,"endpoint: median tumor weight (est.), dose: 50.0 mg/kg/injection, schedule: Q07DX005 (ip), vehicle: saline",94 % of control
O=c1[nH]cccc1O,T/C,"endpoint: median tumor weight change, dose: 125.0 mg/kg/injection, schedule: Q01DX001 (ip), vehicle: saline with Tween-80",60 % of control
same,T/C,[5],35 % of control
CCCCc1ccc(-n2c(C)c(COC(=O)NC)c(COC(=O)NC)c2C)cc1,T/C,"endpoint: median tumor weight (est.), dose: 6.25 mg/kg/injection, schedule: Q07DX005 (ip), vehicle: Klucel (hydroxypropylcellulose) (HPC)",118 % of control
same,T/C,"endpoint: median tumor weight (est.), dose: 12.5 mg/kg/injection, schedule: Q07DX005 (ip), vehicle: Klucel (hydroxypropylcellulose) (HPC)",63 % of control
same,T/C,"endpoint: median tumor weight (est.), dose: 25.0 mg/kg/injection, schedule: Q07DX005 (ip), vehicle: Klucel (hydroxypropylcellulose) (HPC)",111 % of control
same,T/C,"endpoint: median tumor weight (est.), dose: 50.0 mg/kg/injection, schedule: Q07DX005 (ip), vehicle: Klucel (hydroxypropylcellulose) (HPC)",56 % of control
same,T/C,"endpoint: median tumor weight (est.), dose: 100.0 mg/kg/injection, schedule: Q07DX005 (ip), vehicle: Klucel (hydroxypropylcellulose) (HPC)",40 % of control
NCCCNCCSP(=O)(O)O,T/C,[1],39 % of control
same,T/C,"endpoint: median tumor weight (est.), dose: 50.0 mg/kg/injection, schedule: Q07DX005 (ip), vehicle: saline with Tween-80",33 % of control
same,T/C,"endpoint: median tumor weight (est.), dose: 100.0 mg/kg/injection, schedule: Q07DX005 (ip), vehicle: saline with Tween-80",50 % of control
same,T/C,"endpoint: median tumor weight (est.), dose: 200.0 mg/kg/injection, schedule: Q07DX005 (ip), vehicle: saline with Tween-80",28 % of control
same,T/C,"endpoint: median tumor weight (est.), dose: 400.0 mg/kg/injection, schedule: Q07DX005 (ip), vehicle: saline with Tween-80",42 % of control
Cc1ccc(S(=O)(=O)NC(=O)OC23COCN2COC3)cc1,T/C,"endpoint: median tumor weight change, dose: 125.0 mg/kg/injection, schedule: Q01DX001 (ip), vehicle: water",170 % of control
same,T/C,[5],111 % of control
same,T/C,"endpoint: median tumor weight change, dose: 500.0 mg/kg/injection, schedule: Q01DX001 (ip), vehicle: saline with Tween-80",90 % of control
same,T/C,"endpoint: median tumor weight change, dose: 500.0 mg/kg/injection, schedule: Q01DX001 (ip), vehicle: water",162 % of control
same,T/C,"endpoint: median tumor weight change, dose: 1000.0 mg/kg/injection, schedule: Q01DX001 (ip), vehicle: water",222 % of control
same,T/C,"endpoint: median tumor weight change, dose: 2000.0 mg/kg/injection, schedule: Q01DX001 (ip), vehicle: saline with Tween-80",74 % of control
same,T/C,"endpoint: median tumor weight change, dose: 2000.0 mg/kg/injection, schedule: Q01DX001 (ip), vehicle: water",184 % of control

# From PubChem BioAssay AID220 (DTP/NCI, 2004)
